# Data from patent publication US20230167467A1, “METHODS AND COMPOSITIONS FOR THE PRODUCTION OF ISOBUTENE” (University of Alaska Anchorage, priority 2020, published 2023).
# Like-named read-outs stand apart in the source and are kept apart here.
# B1: M3K: mevalonate-3-kinase of Picrophilus torridus, enzyme and gene/transcript (optimized gene SEQ ID NO:1) (protein)
# chain: MENYNVKTRAFPTIGIILLGGISDKKNRIPLHTTAGIAYTGINNDVYTETKLYVSKDEKSYIDGKEIDLNSDRSPSKVIDKFKHEILMRVNLDDENNLSIDSRNFNILSGSSDSGAAALGECIESIFEYNINIFTFENDLQRISESVGRSLYGGLTVNYANGRESLTEPLLEPEAFNNFTIIGAHFNIDRKPSNEIHENIIKHENYRERIKSAERKAKKLEELSRNANIKGIFELAESDTVEYHKMLHDVGVDIINDRMENLIERVKEMKNNFWNSYIVTGGPNVFVITEKKDVDKAMEGLNDLCDDIRLLKVAGKPQVISKNF
# modifications: optimized gene; M3K optimized gene
# Tests used:
# [1] = test system: Engineered strains of E. coli; format: cell-based
# [2] = at 20° C.; cited from earlier work
# 3-HIV = conditions: expressed in E. coli, plasmid based system, synthetic media; cited from earlier work
# [3] = cited from earlier work; for Isobutene production: purified M3K
# [4] = after solvent exposure, vs positive control
molecule,measurement,setting,value
C=C(C)C [isobutene],expression of accBC (fatty acid biosynthesis),[1],downregulated
same,expression of bssRS (decreasing biofilm material),[1],upregulated
same,expression of chaperone genes groLS and dnaJK,[1],increased expression
same,expression of gad genes,[1],increase in expression
same,expression of gadABCE (acid resistance via GABA production),[1],upregulated
same,expression of glpABC (glycerol to glycerone phosphate),[1],increased in expression
same,expression of heat shock proteins and chaperones hslJORUV,[1],no significant changes in expression
same,expression of ibpAB,[1],strong upregulation
same,expression of ibpAB and clpAB (protein protection and repair),[1],increased
same,expression of marA,[1],upregulated
same,change in expression of gene adiA,[1]; [4],0.47 ± 0.86
same,change in expression of gene adiC,[1]; [4],−1.83 ± 1.03
same,change in expression of gene adiY,[1]; [4],0.21 ± 0.65
same,change in expression of gene bhsA,[1]; [4],0.43 ± 0.86
same,change in expression of gene bssR,[1]; [4],3.93 ± 0.44
same,change in expression of gene bssS,[1]; [4],3.75 ± 0.84
same,change in expression of gene clpA,[1]; [4],1.73 ± 0.64
same,change in expression of gene clpB,[1]; [4],2.85 ± 0.69
same,change in expression of gene clpP,[1]; [4],0.09 ± 0.59
same,change in expression of gene coaA,[1]; [4],−4.22 ± 0.95
same,change in expression of gene coaD,[1]; [4],−3.52 ± 1.24
same,change in expression of gene cspA,[1]; [4],−8.13 ± 0.67
same,change in expression of gene cspB,[1]; [4],−9.03 ± 1.74
same,change in expression of gene cspC,[1]; [4],−2.50 ± 0.94
same,change in expression of gene cspD,[1]; [4],3.12 ± 0.58
same,change in expression of gene cspE,[1]; [4],−0.85 ± 0.63
same,change in expression of gene cspF,[1]; [4],−7.27 ± 1.56
same,change in expression of gene dhaK,[1]; [4],2.25 ± 0.59
same,change in expression of gene dhaL,[1]; [4],0.48 ± 0.65
same,change in expression of gene dnaJ,[1]; [4],0.17 ± 0.70
same,change in expression of gene dnaK,[1]; [4],2.71 ± 0.66
same,change in expression of gene fabA,[1]; [4],−2.35 ± 0.81
same,change in expression of gene fabB,[1]; [4],−0.08 ± 0.68
same,change in expression of gene fabD,[1]; [4],−1.92 ± 0.54
same,change in expression of gene flgA,[1]; [4],−3.93 ± 1.72
same,change in expression of gene flgB,[1]; [4],−7.15 ± 1.90
same,change in expression of gene flgC,[1]; [4],−8.24 ± 2.24
same,change in expression of gene flgD,[1]; [4],−6.54 ± 2.06
same,change in expression of gene flgE,[1]; [4],−7.58 ± 1.51
same,change in expression of gene flgF,[1]; [4],−7.63 ± 1.96
same,change in expression of gene flgG,[1]; [4],−6.35 ± 1.72
same,change in expression of gene flgH,[1]; [4],−4.44 ± 1.88
same,change in expression of gene gabD,[1]; [4],−0.64 ± 1.36
same,change in expression of gene gabP,[1]; [4],−3.65 ± 1.55
same,change in expression of gene gabT,[1]; [4],−1.79 ± 1.38
same,change in expression of gene gadA,[1]; [4],1.22 ± 0.68
same,change in expression of gene gadB,[1]; [4],2.70 ± 0.79
same,change in expression of gene gadC,[1]; [4],3.17 ± 0.80
same,change in expression of gene gadE,[1]; [4],1.75 ± 0.60
same,change in expression of gene gadW,[1]; [4],−4.21 ± 1.02
same,change in expression of gene gadX,[1]; [4],−1.69 ± 0.57
same,change in expression of gene gadY,[1]; [4],−1.72 ± 0.78
same,change in expression of gene glpA,[1]; [4],9.06 ± 0.87
same,change in expression of gene glpB,[1]; [4],6.10 ± 0.63
same,change in expression of gene glpC,[1]; [4],6.02 ± 0.80
same,change in expression of gene groL,[1]; [4],2.61 ± 0.57
same,change in expression of gene groS,[1]; [4],1.62 ± 0.50
same,change in expression of gene hchA,[1]; [4],3.41 ± 0.60
same,change in expression of gene hslJ,[1]; [4],−1.24 ± 0.71
same,change in expression of gene hslO,[1]; [4],−0.29 ± 0.66
same,change in expression of gene hslR,[1]; [4],−0.04 ± 0.67
same,change in expression of gene hslU,[1]; [4],0.23 ± 0.56
same,change in expression of gene hslV,[1]; [4],−1.15 ± 0.66
same,change in expression of gene ibpA,[1]; [4],3.97 ± 1.21
same,change in expression of gene ibpB,[1]; [4],3.99 ± 1.50
same,change in expression of gene lhgO,[1]; [4],−1.00 ± 1.77
same,change in expression of gene lipA,[1]; [4],−1.56 ± 0.63
same,change in expression of gene lipB,[1]; [4],−4.07 ± 0.88
same,change in expression of gene narG,[1]; [4],4.31 ± 0.65
same,change in expression of gene narH,[1]; [4],3.55 ± 0.61
same,change in expression of gene narI,[1]; [4],1.31 ± 0.94
same,change in expression of gene narJ,[1]; [4],2.32 ± 0.68
same,change in expression of gene narK,[1]; [4],−0.07 ± 0.89
same,change in expression of gene potA,[1]; [4],−5.02 ± 0.89
same,change in expression of gene potB,[1]; [4],−4.42 ± 1.50
same,change in expression of gene potC,[1]; [4],−3.91 ± 1.44
same,change in expression of gene pspA,[1]; [4],7.14 ± 0.55
same,change in expression of gene pspB,[1]; [4],4.56 ± 0.68
same,change in expression of gene rpoA,[1]; [4],−0.01 ± 0.44
same,change in expression of gene rpoB,[1]; [4],−0.34 ± 0.40
same,change in expression of gene rpoC,[1]; [4],−0.44 ± 0.39
same,change in expression of gene rpoD,[1]; [4],−0.24 ± 0.70
same,change in expression of gene rpoE,[1]; [4],−1.87 ± 0.62
same,change in expression of gene rpoH,[1]; [4],0.42 ± 0.52
same,change in expression of gene rpoN,[1]; [4],−1.57 ± 0.49
same,change in expression of gene rpoS,[1]; [4],0.24 ± 0.48
same,change in expression of gene rpoZ,[1]; [4],−2.12 ± 0.55
same,change in expression of gene spy,[1]; [4],2.48 ± 0.88
same,change in expression of gene tatA,[1]; [4],−1.83 ± 0.52
same,change in expression of gene tatB,[1]; [4],−2.68 ± 0.61
same,change in expression of gene tatC,[1]; [4],−3.61 ± 1.20
same,change in expression of gene tatD,[1]; [4],−4.46 ± 1.28
same,change in expression of gene tatE,[1]; [4],0.70 ± 0.64
same,number of genes with significant changes in expression,"[1]; vs control, Bon Ferroni corrected p-value<0.05",1384 genes
same,aqueous solubility,[2],0.03 mg/mL
B1,isobutene production rates,3-HIV,up to 507 pmol min^−1 g cells^−1
same,highest overall bioproduction of isobutene,"[3]; purified M3K enzyme with 3-HIV, 50° C.","2,880±140 pmol/min*mg protein"
same,Isobutene production,[3]; 30° C.,26±2 pmol*min-1 *mg protein
same,Isobutene production,[3]; 50° C.,"2,880±140 pmol*min-1 *mg protein"
